Values quoted from earlier work in patent US12397030B2, “Polyphenol compositions and uses thereof” (METAGENICS, INC., priority 2019, dated 2025).

Experiments:
[1] = test system: ATP-binding cassette transporter A1 (ABCA1); settings: enhances reverse cholesterol transport
[2] = humans

ABCA1 expression in macrophages [1] | time by which no longer detected [2] [h] | time to appearance following consumption [2] [min] | elimination half-life ([2]; after consumption) [min] | Compound
upregulation | – | – | – | O=c1oc2cc(O)ccc2c2ccccc12 [urolithin B]
– | ≤ 5 | ~30 | 42.6 | O=c1oc2c(O)c(O)cc3c(=O)oc4c(O)c(O)cc1c4c23 [ellagic acid]
